Several values for one entry are separate records, joined by “and”; a condition that tells them apart may be missing. Equal entries are not always repeated.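 96-well plates; 48 h exposure; 5 concentrations. Endpoints by linear interpolation between flanking doses. Not reached: highest tested concentration assigned. GI50 = concentration required for 50% inhibition of growth. At the TGI there is no net growth.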
How the values were obtained:
Assay in all cases: NCI anticancer screen, dose series, 48 h
SW-620 colon = tested on: SW-620 colon
NCI-H226 lung = tested on: NCI-H226 lung
MALME-3M melanoma = tested on: MALME-3M melanoma
A549 NSCLC = tested on: A549 NSCLC
UO-31 renal = tested on: UO-31 renal
SNB-75 CNS = tested on: SNB-75 CNS
RXF 393 renal = tested on: RXF 393 renal
TK-10 renal = tested on: TK-10 renal
HL-60(TB) leukemia = tested on: HL-60(TB) leukemia
NCI/ADR-RES ovarian = tested on: NCI/ADR-RES ovarian

Structure (SMILES)	TGI (SW-620 colon)	TGI (NCI-H226 lung)	TGI (MALME-3M melanoma)	TGI (A549 NSCLC) [µM]	TGI (UO-31 renal)	TGI (SNB-75 CNS) [µM]	TGI (RXF 393 renal)	TGI (TK-10 renal)	TGI (HL-60(TB) leukemia)	TGI (NCI/ADR-RES ovarian) [µM]	GI50 (SW-620 colon) [µM]	GI50 (NCI-H226 lung) [µM]	GI50 (HL-60(TB) leukemia)	GI50 (A549 NSCLC)	GI50 (UO-31 renal) [µM]	GI50 (SNB-75 CNS) [µM]	GI50 (RXF 393 renal) [µM]	GI50 (TK-10 renal) [µM]	GI50 (MALME-3M melanoma) [µM]	GI50 (NCI/ADR-RES ovarian) [µM]
CCCCCCCCCCCCCCCCCC(=O)OCC1OC(OC)C(NC(=O)N(CCCl)N=O)C(O)C1O (stereo unspecified)	47.8 µM	86.8 µM	78.3 µM	52.1	56.8 µM	41.6	32.1 µM	> 100 µM												
CCOC(=O)C12CC(C)=C(C)CC1CCCc1ccccc12 (stereo unspecified)	51.8 µM	56 µM	53.5 µM	> 100	> 100 µM	71.1	43.1 µM	77.8 µM	29.5 µM	> 100										
Cc1cc2c(cc1Cl)SC(c1ccccc1O)NS2(=O)=O (stereo unspecified)	42.5 µM	> 100 µM	61.8 µM	> 100	> 100 µM	> 100	> 100 µM	> 100 µM	> 100 µM	> 100										
Cn1c(=O)ccc2c(=O)c3ccccc3oc21	> 100 µM	> 100 µM	> 100 µM	> 100	16.8 µM		> 100 µM	> 100 µM	> 100 µM	> 100										
O=C([CH-]C(=O)c1ccccc1)c1ccccc1.O=C([CH-]C(=O)c1ccccc1)c1ccccc1.O=C([CH-]C(=O)c1ccccc1)c1ccccc1.[Cl-].[Hf+4]	> 100 µM	54 µM		86.2	96.9 µM	> 100	23.2 µM	53.8 µM	> 100 µM		10.8	13	18.1 µM	16.7 µM	26.8	9.43	7.68	18.7		
O=C(CSSCC(=O)OCCS(=O)(=O)Nc1ccc(Br)cc1)OCCS(=O)(=O)Nc1ccc(Br)cc1	44.2 µM		22.8 µM	> 100	> 100 µM	66.6	16.8 µM	87.8 µM	38.7 µM											
Cc1cn(Cc2cn(CC3OC(n4cc(C)c(=O)[nH]c4=O)CC3O)nn2)c(=O)[nH]c1=O (stereo unspecified)	> 100 µM	> 100 µM	> 100 µM	> 100	> 100 µM	> 100	> 100 µM	> 100 µM		> 100										
N=C(N)c1ccc(N=Nc2c(O)ccc3cc4c(N=Nc5ccc(C(=N)N)cc5)c(O)ccc4cc23)cc1	> 100 µM	> 100 µM	> 100 µM	> 100	> 100 µM	> 100	> 100 µM	> 100 µM	84.6 µM	> 100										
CC(C)(C)c1cc(-c2nc3ccc(N4CCN(CCO)CC4)cc3[nH]2)cc(C(C)(C)C)c1O		> 100 µM	2.83 µM	> 100		4.55		> 100 µM	4.86 µM	> 100		21.5	1.84 µM	3.51 µM		1.21		4.69	1.47	> 100
CCCC[C@H]1C(=O)O[C@H](C)[C@H](NC(=O)c2cccc(NC=O)c2OC)C(=O)O[C@@H](C)[C@@H]1OC(=O)CC(C)C (tested in a mixture with another compound)	64.3 µM	35 µM	46.5 µM	23	41.4 µM	17.9	34.6 µM	30.7 µM	35.8 µM	61.1										
COc1cc(C2C(=O)C(Cl)N2Nc2nc(C)cc(=O)[nH]2)cc(OC)c1OC (stereo unspecified)	> 100 µM	62.6 µM		> 100	79.1 µM	43.3	26.4 µM	> 100 µM	33.7 µM											
O=C(NC(Cc1ccc(Cl)cc1)C(=O)O)c1ccc(I)cc1 (stereo unspecified)	> 100 µM	> 100 µM	> 100 µM	> 100	> 100 µM	> 100	> 100 µM		> 100 µM	> 100										
Cc1ccc2c3c1[C@@H]1O[C@@H]1c1cccc(c1-3)[C@@H]1O[C@H]21		84.7 µM	31 µM	34.1	27.7 µM	15.7		38.5 µM		90										
COc1ccc(N=Nc2c(N)nn(C)c2N)cc1	> 100 µM	> 100 µM	> 100 µM	> 100	> 100 µM	> 100	> 100 µM	> 100 µM	> 100 µM											
C/C(=C\C(=N\NC(=N)N)c1ccccc1)c1ccccc1	1.73 µM	13 µM	3.5 µM	16.9		17.3	8.42 µM	14.1 µM		10.1										
O=c1[nH]c(=O)n(CCOCP(=O)(O)O)nc1Br	> 100 µM	> 100 µM	> 100 µM	> 100	> 100 µM	> 100	> 100 µM	> 100 µM	> 100 µM	> 100										

Structure (SMILES)	TGI (SW-620 colon)	TGI (NCI-H226 lung)	TGI (MALME-3M melanoma)	TGI (A549 NSCLC) [µM]	TGI (UO-31 renal)	TGI (SNB-75 CNS) [µM]	TGI (RXF 393 renal)	TGI (TK-10 renal)	TGI (HL-60(TB) leukemia)	TGI (NCI/ADR-RES ovarian) [µM]	GI50 (SW-620 colon) [µM]	GI50 (NCI-H226 lung) [µM]	GI50 (HL-60(TB) leukemia)	GI50 (A549 NSCLC)	GI50 (UO-31 renal) [µM]	GI50 (SNB-75 CNS) [µM]	GI50 (RXF 393 renal) [µM]	GI50 (TK-10 renal) [µM]	GI50 (MALME-3M melanoma) [µM]	GI50 (NCI/ADR-RES ovarian) [µM]
Cc1cc(=O)n2c3c(c4c(cc13)c(CN(C)C)cc(=O)n4C)OC2	> 82.3 µM	> 67.1 µM	30.4 µM	> 55.1	> 89.8 µM	58.6	28.7 µM	> 88.6 µM	> 100 µM	> 76.9										
O=c1[nH]c2cc([N+](=O)[O-])c(N/N=C/c3ccc(Cl)cc3Cl)c([N+](=O)[O-])c2[nH]1	> 100 µM	> 100 µM	> 100 µM	> 100	> 100 µM	> 100	40.9 µM	> 100 µM	> 100 µM	> 100										
O=S(=O)(O)c1ccc2c(N=Nc3ccccc3)c(O)ccc2c1	> 100 µM	> 100 µM	> 100 µM	> 100	> 100 µM	> 100	> 100 µM	> 100 µM	> 100 µM	> 100										
Cc1ccc(C(=O)Nc2ncn(C3CC(O)C(CO)O3)c(=O)n2)cc1 (stereo unspecified)	> 100 µM	> 100 µM	> 100 µM	> 100	> 100 µM	> 100	> 100 µM			> 100										
CCCCCCCCCCCCSC(=S)c1c(C)[nH]n(CCCCCCCCCCCC)c1=O	> 100 µM	> 100 µM	> 100 µM	> 100	> 100 µM	> 100			> 100 µM											
COC(=O)c1ccc2c(c1)sc1nc(-c3ccc(OC)cc3)cn12	> 100 µM	> 100 µM	> 100 µM	> 100	> 100 µM	> 100	> 100 µM	> 100 µM	> 100 µM	> 100										
COc1cccc(NC(=O)CC(=O)NN2C(=O)/C(=C/c3ccc(N(CCC#N)CCC#N)cc3)N=C2c2cc([N+](=O)[O-])ccc2Cl)c1	> 100 µM	30.1 µM	> 100 µM	> 100	> 100 µM		> 100 µM	> 100 µM												
N#Cc1c(-c2ccc(Cl)cc2)c2c([nH]c1=O)-c1cc([N+](=O)[O-])ccc1CCC2	> 100 µM	44.2 µM	> 100 µM	82.9	32.5 µM	78.3	37.6 µM	69.5 µM	65.1 µM	55.4										
C=C1CC2C3C=C(C)C4=CC(=O)CC[C@]4(C)C3CC[C@]2(C)[C@@]1(OC(C)=O)C(C)=O (stereo partly specified)				> 100		> 100	> 100 µM	> 100 µM	5.53 µM	> 100			2.55 µM	2.63 µM		8.76	4.31	> 100		2.43
COc1ccc2c(c1)CCCc1c-2nc2ccccc2c1N	29 µM	28.4 µM	27.1 µM	25.7	18.5 µM	22.6	18.7 µM	23.2 µM	32.4 µM	33.6										
Cn1c2cn[nH]c(=O)c2c2ccc3ccccc3c21	> 100 µM	> 100 µM	> 100 µM	> 100	70.6 µM	38.3	62.9 µM	> 100 µM	> 100 µM	> 100										
COP(=O)(OC)[C@H](O)[C@H]1C[C@@H]1c1ccccc1	> 100 µM	> 100 µM	> 100 µM	> 100	> 100 µM	> 100	> 100 µM	> 100 µM	> 100 µM	> 100										
COc1ccc(N=Cc2ccc(N(CCC#N)S(=O)(=O)c3ccccc3)cc2C)cc1	> 100 µM	> 100 µM	93.7 µM	> 100	> 100 µM	> 100	> 100 µM	87.6 µM	> 100 µM											
C[C@H]1CCC/C=C/[C@@H]2C[C@H](O)C[C@H]2[C@H](O)/C=C/C(=O)O1	0.0856 µM and 0.118 µM and 0.124 µM	0.0954 µM and 0.148 µM and 0.0478 µM	0.0745 µM and 0.0253 µM and 0.0382 µM	> 100	0.0655 µM and 0.492 µM		0.0481 µM and 0.053 µM and 0.0188 µM	2.57 µM and 0.362 µM and 1 µM	1.82 µM and > 15.2 µM				0.0281 µM and 0.167 µM and 0.115 µM	< 0.0207 µM and 0.0435 µM and 0.0578 µM	0.0301	0.0185				0.0476
O=C(O)CCCN=C(C1=C(O)C(=O)N(c2ccccc2)C1=O)c1ccccc1	> 100 µM	> 100 µM	> 100 µM	> 100	> 100 µM	> 100	> 100 µM	> 100 µM	> 100 µM	> 100										
CCN(CCO)CCNc1ccc(C)c2sc3ccccc3c(=O)c12	5.5 µM	14 µM	8.05 µM	15.2	15 µM	12	5.64 µM	21.4 µM	11.3 µM	11.7										

Reference: PubChem BioAssay (NCI)
